According to US20090311344A1, “Dosing Regimen” (priority 2008, published 2009):
“Also recorded” adds a separate entry of the source.

Key:
hemoglobin = test: Multiple dose study in cancer subjects receiving platinum-based chemotherapy: hemoglobin; type: in vivo, human; details: Day 42
Description: (§1) A total of 7 subjects were excluded from the preliminary statistical analysis of Day 42 platelet count data and 9 subjects were excluded from the preliminary statistical analysis of Day 42 hemoglobin data due to either incorrect randomization, platelet transfusion, not administered the 2nd dose of study medication, or lost to follow-up.

platelet count [1] = test: Multiple dose study in cancer subjects receiving platinum-based chemotherapy: platelet counts; type: in vivo, human; details: for Maximum Platelet Counts, Geometric Mean: in 10^9/L (unit assumed)
Description: as §1

[2] = tested on: platelets, reticulocytes, hematocrit; test: CBC analysis and reticulocyte counts in HT-29 tumor-bearing mice (Groups 6-9); type: in vivo, athymic nude mice
Experimental: Five groups (n=10) of female athymic nude mice (Harlan) bearing established (˜100 mm^3) HT-29 human colon carcinomas on Day 1. Groups 6-9 (n=20) were included for blood sampling and received the same treatment as Groups 1-4, respectively. Treatment effects on the growth of tumors were evaluated by tumor growth delay (TGD), which is the difference between median time to endpoint (TTE) tumor size in a treatment group compared to a control group. […]
Group 1 mice (n=10) were untreated tumor growth controls. Group 2 mice (n=10) received 60 mg/kg carboplatin administered intraperitoneally (i.p.) on Days 1, 2, 12, and 13. Group 3 mice (n=10) received 0.2 mg/kg of the TPO mimetic peptide compound administered intravenously (i.v.) via tail vein on Days 2 and 13. Groups 4 and 5 received the combination of carboplatin (60 mg/kg i.p. on Days 1, 2, 12, and 13) and 0.2 mg/kg of the TPO mimetic peptide compound on Days 2, 13 and Days 2, 13, 23, respectively, administered intravenously (i.v.) one hour after carboplatin dosing. Groups 6-9 (n=20 each) were included for blood sampling and received the same treatments as Groups 1-4, respectively. For all groups, each dose of drug was given in a volume of 0.2 mL per 20 g of body weight (10 mL/kg), and was scaled to the body weight of each animal.
[…] Blood was collected into EDTA tubes, and complete blood counts (CBC) with differential were determined using a Cell-Dyn® 3700 System (Abbott Diagnostics) for automated hematology analyses. Reticulocyte values were determined. In addition, for Groups 1-5, five animals per group were euthanized at or just after endpoint by terminal cardiac puncture under CO2 anesthesia, and gross necropsies were performed. Blood samples were collected into EDTA tubes, and CBC with differential and reticulocyte values were performed as previously described. All other animals in Groups 1-5 were euthanized at endpoint without sampling.

[3] = tested on: chemotherapy-induced thrombocytopenia and anemia; test: murine models of chemotherapy-induced thrombocytopenia (CIT) and anemia; type: in vivo
Experimental: (§2) The TPO mimetic peptide compound has an estimated EC50 of approximately 5 pM (0.2 ng/mL) in a human TPO (huTPO) receptor assay in vitro and stimulates megakaryocyte lineage specific growth and differentiation in vivo.

platelet count [4] = test: platelet count in the rat after a single i.v. dose; type: in vivo; details: single i.v. dose 30 to 300 μg/kg
Experimental: as §2

Substance: Methoxypolyethyleneglycol20000-propionyl-L-Isoleucyl-L-Glutamyl-Glycyl-L-Prolyl-L-Threonyl-L-Leucyl-L-Arginyl-L-Glutaminyl-L-2-Naphthylalanyl-L-Leucyl-L-Alanyl-L-Alanyl-L-Arginyl-Sarcosyl-Ne-(methoxypolyethyleneglycol20000-propionyl-L-Isoleucyl-L-Glutamyl-Glycyl-L-Prolyl-L-Threonyl-L-Leucyl-L-Arginyl-L-Glutaminyl-L-2-Naphthylalanyl-L-Leucyl-L-Alanyl-L-Alanyl-L-Arginyl-Sarcosyl-)-Lysinamide [TPO mimetic peptide compound]
- Change From Baseline in Hemoglobin, LS Mean (SE) (hemoglobin; 1.5 μg/kg): −1.63 (0.50)
- Change From Baseline in Hemoglobin, Diff of LS Mean (SE) vs Placebo (hemoglobin; 2.25 μg/kg): 0.57 (0.57)
- Change From Baseline in Hemoglobin, LS Mean (SE) (hemoglobin; 2.25 μg/kg): −1.60 (0.42)
- course of platelets (platelet count [1]; 1.5 μg/kg dose): continued to decline up to Day 15
- platelets as compared to the placebo subjects (platelet count [1]; 1.5 μg/kg dose): no apparent difference
- day of mean peak platelets (platelet count [1]; 3.0 μg/kg dose): 15 days
- subjects with platelet increase of more than 3 times the baseline (≧3-fold) (platelet count [1]; 1.5 and 2.25 μg/kg dose): no subjects; also recorded: none of the subjects
- day of peak platelets (platelet count [1]; 2.25 and 1.5 μg/kg doses): 21 days
- platelet nadir and peak platelet counts relative to placebo (platelet count [1]; 2.25 and 3 μg/kg dose): approximately 2 fold
- day of mean platelet nadir (platelet count [1]; 2.25 and 3 μg/kg dose groups): 10 days
- platelet count as compared with placebo (platelet count [1]; 2.25 and 3 μg/kg doses): reduction in chemotherapy-induced decline in platelets and faster recovery relative to placebo; also recorded: increased platelet count
- Maximum Platelet Counts, GMR (Active/Placebo) (platelet count [1]; Across, 1.5 μg/kg): 1.0
- Minimum Platelet Counts, GMR (Active/Placebo) (platelet count [1]; Across, 1.5 μg/kg): 0.6
- Minimum Platelet Counts, Geometric Mean (platelet count [1]; Across, 1.5 μg/kg): 33.99
- Maximum Platelet Counts, Geometric Mean (platelet count [1]; Across, 1.5 μg/kg): 371.53
- Maximum Platelet Counts, GMR (Active/Placebo) (platelet count [1]; Across, 2.25 μg/kg): 1.6
- Minimum Platelet Counts, GMR (Active/Placebo) (platelet count [1]; Across, 2.25 μg/kg): 2.7
- Minimum Platelet Counts, Geometric Mean (platelet count [1]; Across, 2.25 μg/kg): 163.71
- Maximum Platelet Counts, Geometric Mean (platelet count [1]; Across, 2.25 μg/kg): 570.39
- Maximum Platelet Counts, GMR (Active/Placebo) (platelet count [1]; Across, 3.0 μg/kg): 1.8
- Minimum Platelet Counts, GMR (Active/Placebo) (platelet count [1]; Across, 3.0 μg/kg): 2.0
- Minimum Platelet Counts, Geometric Mean (platelet count [1]; Across, 3.0 μg/kg): 121.61
- Maximum Platelet Counts, Geometric Mean (platelet count [1]; Across, 3.0 μg/kg): 633.09
- Maximum Platelet Counts, GMR (Active/Placebo) (platelet count [1]; Cycle 1, 1.5 μg/kg): 1.1
- Minimum Platelet Counts, GMR (Active/Placebo) (platelet count [1]; Cycle 1, 1.5 μg/kg): 0.5
- Minimum Platelet Counts, Geometric Mean (platelet count [1]; Cycle 1, 1.5 μg/kg): 47.01
- Maximum Platelet Counts, Geometric Mean (platelet count [1]; Cycle 1, 1.5 μg/kg): 331.25
- Maximum Platelet Counts, GMR (Active/Placebo) (platelet count [1]; Cycle 1, 2.25 μg/kg): 1.8
- Minimum Platelet Counts, GMR (Active/Placebo) (platelet count [1]; Cycle 1, 2.25 μg/kg): 2.3
- Minimum Platelet Counts, Geometric Mean (platelet count [1]; Cycle 1, 2.25 μg/kg): 213.46
- Maximum Platelet Counts, Geometric Mean (platelet count [1]; Cycle 1, 2.25 μg/kg): 557.78
- Maximum Platelet Counts, GMR (Active/Placebo) (platelet count [1]; Cycle 1, 3.0 μg/kg): 2.1
- Minimum Platelet Counts, GMR (Active/Placebo) (platelet count [1]; Cycle 1, 3.0 μg/kg): 2.0
- Minimum Platelet Counts, Geometric Mean (platelet count [1]; Cycle 1, 3.0 μg/kg): 191.17
- Maximum Platelet Counts, Geometric Mean (platelet count [1]; Cycle 1, 3.0 μg/kg): 641.56
- Maximum Platelet Counts, GMR (Active/Placebo) (platelet count [1]; Cycle 2, 1.5 μg/kg): 1.0
- Minimum Platelet Counts, GMR (Active/Placebo) (platelet count [1]; Cycle 2, 1.5 μg/kg): 1.0
- Minimum Platelet Counts, Geometric Mean (platelet count [1]; Cycle 2, 1.5 μg/kg): 75.10
- Maximum Platelet Counts, Geometric Mean (platelet count [1]; Cycle 2, 1.5 μg/kg): 290.55
- Maximum Platelet Counts, GMR (Active/Placebo) (platelet count [1]; Cycle 2, 2.25 μg/kg): 1.4
- Minimum Platelet Counts, GMR (Active/Placebo) (platelet count [1]; Cycle 2, 2.25 μg/kg): 2.2
- Minimum Platelet Counts, Geometric Mean (platelet count [1]; Cycle 2, 2.25 μg/kg): 175.08
- Maximum Platelet Counts, Geometric Mean (platelet count [1]; Cycle 2, 2.25 μg/kg): 397.37
- Maximum Platelet Counts, GMR (Active/Placebo) (platelet count [1]; Cycle 2, 3.0 μg/kg): 1.4
- Minimum Platelet Counts, GMR (Active/Placebo) (platelet count [1]; Cycle 2, 3.0 μg/kg): 2.2
- Minimum Platelet Counts, Geometric Mean (platelet count [1]; Cycle 2, 3.0 μg/kg): 170.16
- Maximum Platelet Counts, Geometric Mean (platelet count [1]; Cycle 2, 3.0 μg/kg): 401.20
- platelet elevations in the second cycle (platelet count [1]; all subjects): below 3 times the baseline
- day of maximum effect on platelet count after administration (platelet count [1]; human, in vivo): 15 days
- increase in platelet count relative to baseline (platelet count [1]; second cycle, 3.0 μg/kg dose): approximately 2 fold
- mean reticulocyte values compared to Group 6 controls ([2]; Group 8, all time points): slightly higher
- mean hematocrit (HCT) values compared to untreated mice (Group 6) ([2]; Groups 7-9): similar
- mean platelet counts compared to untreated Group 6 controls ([2]; Groups 7-9, regimens as Groups 2-4, Days 10, 13, 21, and 23): higher mean platelet counts at all four time points
- effect of administration time relative to chemotherapy ([3]; 1 hour after chemotherapy compared with dosing after 24 or 96 hours): more effective
- doses at which the anti-anemic effect was observed ([3]; following carboplatin treatment): ≥ 0.03 mg/kg
- chemotherapy-induced reduction in Hb, hematocrit and RBC count ([3]; mouse, in vivo): prevented
- fibrinogen-positive microangiopathic lesions in small blood vessels in the brain ([3]; mouse, in vivo): marked reduction
- minimum effective dose ([3]; murine models of CIT, single dose, Day 12): 0.1 mg/kg
- myeloprotective effect in murine models of CIT ([3]; single dose, Day 12): reducing the severity and duration of CIT in a dose-dependent manner
- platelet count (platelet count [4]): increased platelet count
- time at which platelet count returned to baseline (platelet count [4]): 12 days
- time at which the platelet count increase was maximal (platelet count [4]): 6 days
